This passage reports Solubility in water, pH value and Solubility results from patent US5086050A, “Method of treating inflammatory disorders and psoriasis with salts of azelastine” (priority 1989, dated 1992).

Format in all cases: physicochemical
Data set [1] in a line: Solubility in water at 20° C. (azelastine and previously known salts).
The nature of data set [2]: Solubility in water at room temperature (salts of the invention).
Data set [3] in a line: Solubility and pH value of the aqueous solution on addition of excess acid. An excerpt:
Addition of excess amounts of acid increases the solubility of the salts. For example a 1-fold, preferably a 0.5-fold, in particular a 0.25-fold excess of acid may be used.
For example, the addition of acids yields the following solubility and following pH value of the aqueous solution: […]

The mark [4] stands for this setting: aqueous solution, excess acid 0 mol.
The mark [5] stands for this setting: aqueous solution, excess acid 0.1 mol.
[6] abbreviates: aqueous solution, excess acid 0.25 mol.

Structures can show the parent of a compound that is named as a salt. Where two headings read alike, the source gives them in different places.

Take `CN1CCCC(n2nc(Cc3ccc(Cl)cc3)c3ccccc3c2=O)CC1` (stereo not drawn) [Azelastine, 4-(4-chlorobenzyl)-2-(perhydro-1methylazepine-4-yl)-1-(2H) phthalazinone]: in data set [1], the Solubility in water came to 0.005%.

`CN1CCCC(n2nc(Cc3ccc(Cl)cc3)c3ccccc3c2=O)CC1` (stereo not drawn) [acetate, azelastine acetate]: in data set [2], the Solubility in water result is given as “more than 10%”. In addition, the results for the pH value in data set [3] (setting [4]), in data set [3] (setting [5]) and in data set [3] (setting [6]) were 6.35, 5.52 and 5.1, respectively. The Solubility was 30 mg/mL in data set [3] (aqueous solution, excess acid 0.1 mol, read-out: Solubility); 100 mg/mL in data set [3] (aqueous solution, excess acid 0.25 mol, read-out: Solubility); 2% in data set [3] (excess acid 0 mol).

In the case of `CN1CCCC(n2nc(Cc3ccc(Cl)cc3)c3ccccc3c2=O)CC1` (stereo not drawn) [benzene sulphonate], the Solubility in water entry in data set [1] is “under 1%”.

On to `CN1CCCC(n2nc(Cc3ccc(Cl)cc3)c3ccccc3c2=O)CC1` (stereo not drawn) [embonate], for which the Solubility in water in data set [1] was found to be 0.0015%.

On to `CN1CCCC(n2nc(Cc3ccc(Cl)cc3)c3ccccc3c2=O)CC1` (stereo not drawn) [fumarate], for which, in data set [1], the Solubility in water result is reported as “under 1%”.

As to `CN1CCCC(n2nc(Cc3ccc(Cl)cc3)c3ccccc3c2=O)CC1` (stereo not drawn) [gluconate, azelastine gluconate], in data set [2], the Solubility in water result was “up to 55%”. The pH value in data set [3] (aqueous solution, excess acid 0.5 mol) was determined as 4.5. Besides, the Solubility in data set [3] (aqueous solution, excess acid 0.5 mol, read-out: Solubility) was found to be 100 mg/mL.

`CN1CCCC(n2nc(Cc3ccc(Cl)cc3)c3ccccc3c2=O)CC1` (stereo not drawn) [hydrochloride]: in data set [1], the Solubility in water stood at 1%.

Turning to `CN1CCCC(n2nc(Cc3ccc(Cl)cc3)c3ccccc3c2=O)CC1` (stereo not drawn) [lactate, azelastine lactate], the Solubility in water result in data set [2] is “more than 10%”. The pH value was 5.15 in data set [3] (setting [4]), 4.6 in data set [3] (setting [5]) and 4.1 in data set [3] (setting [6]). For the same compound, the Solubility in data set [3] (excess acid 0 mol) was 3%; in data set [3] (excess acid 0.1 mol), 5%; in data set [3] (excess acid 0.25 mol), 10%.

With `CN1CCCC(n2nc(Cc3ccc(Cl)cc3)c3ccccc3c2=O)CC1` (stereo not drawn) [malate, azelastine malate], the Solubility in water in data set [2] is listed as 3%. The pH value in data set [3] (setting [4]) was found to be 3.85. In data set [3] (excess acid 0 mol), this compound had a Solubility of 5%.

For the compound `CN1CCCC(n2nc(Cc3ccc(Cl)cc3)c3ccccc3c2=O)CC1` (stereo not drawn) [maleate], the Solubility in water result in data set [1] is listed as “ca. 1%”.

On to `CN1CCCC(n2nc(Cc3ccc(Cl)cc3)c3ccccc3c2=O)CC1` (stereo not drawn) [methane sulphonate], for which, in data set [1], the Solubility in water result is “ca. 1%”.

Turning to `CN1CCCC(n2nc(Cc3ccc(Cl)cc3)c3ccccc3c2=O)CC1` (stereo not drawn) [phosphate], the Solubility in water entry in data set [1] was “ca. 1%”.

`CN1CCCC(n2nc(Cc3ccc(Cl)cc3)c3ccccc3c2=O)CC1` (stereo not drawn) [succinate]: in data set [1], the Solubility in water result was “ca. 1%”.

Consider `CN1CCCC(n2nc(Cc3ccc(Cl)cc3)c3ccccc3c2=O)CC1` (stereo not drawn) [toluene sulphonate], for which the Solubility in water entry in data set [1] is “under 1%”.
